# According to US8192962B2, “Processes for detecting toxic substances” (Daikin Industries, Ltd., priority 2001, dated 2012):
# Test system: Energy system protein genes
# Experiment: DNA chip mRNA expression in yeast, energy system protein genes (Table 4)
# Assay type: cell-based, Saccharomyces cerevisiae S288C
# Method: Yeast (Saccharomyces cerevisiae S288C (α SUC2mal mel gap2 CUP1)) were incubated at 25° C. on YPD medium (yeast extract 1%, polypepton 2%, glucose 2%). One of toxic chemical substances was added to the cells at logarithmic growth phase, and the cells were further incubated for two hours. Cells were cultured without any chemical substance in the same condition, and were used as control. Concentrations of the chemical substances were defined to inhibit the growth of the yeast but not lead to death.
# After completion of the incubation, the culture was centrifuged to collect the cells. To the cells, sodium acetate buffer (50 mM sodium acetate, 10 mM EDTA, 1% SDS) was added, and the mixture was shaken at 65° C. for five minutes, followed by returning to room temperature, and obtaining the supernatant, of which the procedures were repeated two times. To the supernatant, ½ amount of a solution of phenol/chloroform was added, and the mixture was centrifuged to give a supernatant, which was added with an equal amount of chloroform, and the mixture was centrifuged to give a supernatant. To the supernatant, an equal amount of isopropanol containing 0.3 M sodium acetate was added, and the mixture was allowed to stand at room temperature for 30 minutes, after which the mixture was centrifuged to give a sediment of the whole RNAs. Seventy % ethanol was added to the sediment, and the mixture was again centrifuged to give a sediment, which was then dried and dissolved in water. mRNA was isolated from the whole RNAs as followings. In view of the fact that a poly A chain is attached to the 3′ terminus of mRNA, a polynucleotide having a poly T structure which was immobilized on the surface of latex beads was used to trap the mRNA, and then the mRNA was washed and eluted with spine column (Oligotex-dT30<Super>mRNA Purification Kit, Takara). Reverse transcription of the mRNA was conducted with a reverse transcriptase (Super Script II Reverse Transcriptase; catalogue No. 18064-014, GibcoBRL) using fluorescence-labeled nucleotides to give cDNAs that were introduced with Cy3-dUTP or Cy5-dUTP during the reverse transcription.
# The labeled cDNAs were dissolved in TE buffer (10mM Tris-HCl/1 mM EDTA, pH8.0), and the solution was dropped on the DNA chip containing the whole genes of yeast (DNA Chip Research Inc. Japan) so that the cDNAs were hybridized on the DNA chip at 65° C. for over 12 hours. The fluoresces intensity of the DNA chip was read with a scanner, and the ratio relative to the fluorescence intensity resulting from the absence of chemical substance was estimated as the following, which is shown in Tables 1 to 9: […]
smiles,measurement,setting,value
"[Cl][Pb][Cl] [(4), PbCl2]",The level of expressed mRNA in the presence of chemical substance/The level of expressed mRNA in the absence of chemical substance,yeast gene YJR048W,1.4
same,The level of expressed mRNA in the presence of chemical substance/The level of expressed mRNA in the absence of chemical substance,"yeast gene YJR121W, cells incubated two hours with the chemical substance",1.0
same,The level of expressed mRNA in the presence of chemical substance/The level of expressed mRNA in the absence of chemical substance,yeast gene YJR155W,2.5
same,The level of expressed mRNA in the presence of chemical substance/The level of expressed mRNA in the absence of chemical substance,"yeast gene YKL016C, cells incubated two hours with the chemical substance",1.7
same,The level of expressed mRNA in the presence of chemical substance/The level of expressed mRNA in the absence of chemical substance,"yeast gene YKL060C, cells incubated two hours with the chemical substance",1.0
same,The level of expressed mRNA in the presence of chemical substance/The level of expressed mRNA in the absence of chemical substance,"yeast gene YKL141W, cells incubated two hours with the chemical substance",1.7
same,The level of expressed mRNA in the presence of chemical substance/The level of expressed mRNA in the absence of chemical substance,"yeast gene YKL148C, cells incubated two hours with the chemical substance",0.7
same,The level of expressed mRNA in the presence of chemical substance/The level of expressed mRNA in the absence of chemical substance,"yeast gene YKR009C, cells incubated two hours with the chemical substance",0.9
same,The level of expressed mRNA in the presence of chemical substance/The level of expressed mRNA in the absence of chemical substance,"yeast gene YKR058W, cells incubated two hours with the chemical substance, 25° C., YPD medium",1.9
same,The level of expressed mRNA in the presence of chemical substance/The level of expressed mRNA in the absence of chemical substance,yeast gene YKR097W,3.3
same,The level of expressed mRNA in the presence of chemical substance/The level of expressed mRNA in the absence of chemical substance,"yeast gene YLL041C, cells incubated two hours with the chemical substance",1.0
same,The level of expressed mRNA in the presence of chemical substance/The level of expressed mRNA in the absence of chemical substance,"yeast gene YLR038C, cells incubated two hours with the chemical substance",2.1
same,The level of expressed mRNA in the presence of chemical substance/The level of expressed mRNA in the absence of chemical substance,"yeast gene YLR044C, cells incubated two hours with the chemical substance",0.9
same,The level of expressed mRNA in the presence of chemical substance/The level of expressed mRNA in the absence of chemical substance,"yeast gene YLR134W, cells incubated two hours with the chemical substance",0.8
same,The level of expressed mRNA in the presence of chemical substance/The level of expressed mRNA in the absence of chemical substance,"yeast gene YLR258W, cells incubated two hours with the chemical substance",3.5
same,The level of expressed mRNA in the presence of chemical substance/The level of expressed mRNA in the absence of chemical substance,"yeast gene YLR284C, cells incubated two hours with the chemical substance",1.9
same,The level of expressed mRNA in the presence of chemical substance/The level of expressed mRNA in the absence of chemical substance,"yeast gene YLR295C, cells incubated two hours with the chemical substance, 25° C., YPD medium",1.7
same,The level of expressed mRNA in the presence of chemical substance/The level of expressed mRNA in the absence of chemical substance,"yeast gene YLR304C, cells incubated two hours with the chemical substance",0.7
same,The level of expressed mRNA in the presence of chemical substance/The level of expressed mRNA in the absence of chemical substance,yeast gene YLR345W,1.2
same,The level of expressed mRNA in the presence of chemical substance/The level of expressed mRNA in the absence of chemical substance,"yeast gene YLR354C, cells incubated two hours with the chemical substance",1.5
same,The level of expressed mRNA in the presence of chemical substance/The level of expressed mRNA in the absence of chemical substance,"yeast gene YLR377C, cells incubated two hours with the chemical substance",1.2
same,The level of expressed mRNA in the presence of chemical substance/The level of expressed mRNA in the absence of chemical substance,"yeast gene YLR395C, cells incubated two hours with the chemical substance",1.9
same,The level of expressed mRNA in the presence of chemical substance/The level of expressed mRNA in the absence of chemical substance,yeast gene YML087C,2.5
same,The level of expressed mRNA in the presence of chemical substance/The level of expressed mRNA in the absence of chemical substance,"yeast gene YML120C, cells incubated two hours with the chemical substance",1.9
same,The level of expressed mRNA in the presence of chemical substance/The level of expressed mRNA in the absence of chemical substance,"yeast gene YML129C, cells incubated two hours with the chemical substance",1.2
same,The level of expressed mRNA in the presence of chemical substance/The level of expressed mRNA in the absence of chemical substance,"yeast gene YMR073C, cells incubated two hours with the chemical substance",1.5
same,The level of expressed mRNA in the presence of chemical substance/The level of expressed mRNA in the absence of chemical substance,yeast gene YMR118C,1.6
same,The level of expressed mRNA in the presence of chemical substance/The level of expressed mRNA in the absence of chemical substance,"yeast gene YMR205C, cells incubated two hours with the chemical substance",0.8
same,The level of expressed mRNA in the presence of chemical substance/The level of expressed mRNA in the absence of chemical substance,"yeast gene YMR261C, cells incubated two hours with the chemical substance",0.8
same,The level of expressed mRNA in the presence of chemical substance/The level of expressed mRNA in the absence of chemical substance,"yeast gene YMR267W, cells incubated two hours with the chemical substance, 25° C., YPD medium",0.9
same,The level of expressed mRNA in the presence of chemical substance/The level of expressed mRNA in the absence of chemical substance,"yeast gene YMR323W, cells incubated two hours with the chemical substance",1.1
same,The level of expressed mRNA in the presence of chemical substance/The level of expressed mRNA in the absence of chemical substance,yeast gene YNL071W,1.5
same,The level of expressed mRNA in the presence of chemical substance/The level of expressed mRNA in the absence of chemical substance,"yeast gene YNL202W, cells incubated two hours with the chemical substance",1.7
same,The level of expressed mRNA in the presence of chemical substance/The level of expressed mRNA in the absence of chemical substance,yeast gene YNL241C,1.0
same,The level of expressed mRNA in the presence of chemical substance/The level of expressed mRNA in the absence of chemical substance,yeast gene YNL331C,1.0
same,The level of expressed mRNA in the presence of chemical substance/The level of expressed mRNA in the absence of chemical substance,"yeast gene YOL086C, cells incubated two hours with the chemical substance",1.1
same,The level of expressed mRNA in the presence of chemical substance/The level of expressed mRNA in the absence of chemical substance,yeast gene YOL165C,0.9
same,The level of expressed mRNA in the presence of chemical substance/The level of expressed mRNA in the absence of chemical substance,"yeast gene YOR142W, cells incubated two hours with the chemical substance",1.0
same,The level of expressed mRNA in the presence of chemical substance/The level of expressed mRNA in the absence of chemical substance,"yeast gene YOR178C, cells incubated two hours with the chemical substance",2.3
same,The level of expressed mRNA in the presence of chemical substance/The level of expressed mRNA in the absence of chemical substance,"yeast gene YOR388C, cells incubated two hours with the chemical substance",4.7
same,The level of expressed mRNA in the presence of chemical substance/The level of expressed mRNA in the absence of chemical substance,"yeast gene YPL031C, cells incubated two hours with the chemical substance",0.8
same,The level of expressed mRNA in the presence of chemical substance/The level of expressed mRNA in the absence of chemical substance,"yeast gene YPL061W, cells incubated two hours with the chemical substance",1.3
same,The level of expressed mRNA in the presence of chemical substance/The level of expressed mRNA in the absence of chemical substance,yeast gene YPL088W,2.5
same,The level of expressed mRNA in the presence of chemical substance/The level of expressed mRNA in the absence of chemical substance,yeast gene YPL171C,2.2
same,The level of expressed mRNA in the presence of chemical substance/The level of expressed mRNA in the absence of chemical substance,yeast gene YPL240C,0.9
same,The level of expressed mRNA in the presence of chemical substance/The level of expressed mRNA in the absence of chemical substance,"yeast gene YPL262W, cells incubated two hours with the chemical substance",1.2
same,The level of expressed mRNA in the presence of chemical substance/The level of expressed mRNA in the absence of chemical substance,"yeast gene YPL275W, cells incubated two hours with the chemical substance",5.1
same,The level of expressed mRNA in the presence of chemical substance/The level of expressed mRNA in the absence of chemical substance,"yeast gene YPL276W, cells incubated two hours with the chemical substance",3.0
same,The level of expressed mRNA in the presence of chemical substance/The level of expressed mRNA in the absence of chemical substance,"yeast gene YPR048W, cells incubated two hours with the chemical substance",1.1
same,The level of expressed mRNA in the presence of chemical substance/The level of expressed mRNA in the absence of chemical substance,"yeast gene YPR184W, cells incubated two hours with the chemical substance",2.2
